From PubChem BioAssay AID2060910 (Molecular Pharmacology Branch, DTP, NCI, 2025)
One block for each compound: values may come before it.

Test system: 242566-281-R-J2-PDC complex spheroid viability
Assay: Anticancer human tumor 242566-281-R-J2-PDC patient-derived pancreatic carcinoma cell line growth inhibition [RAS]
Conditions: for IC50: curve of first compound; for viability, T/C: stronger effect = lower value
Outline: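 Tumour cells grown as complex spheroids with HUVEC endothelial cells and mesenchymal stem cells, treated with RAS pathway inhibitor combinations. Each agent spans half-log steps from near clinical Cmax, or 10 microM where Cmax is unknown.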

[1] = second compound 0.00316 µM, first compound 0.0316 µM
[2] = second compound 0.00316 µM, first compound 0.1 µM
[3] = second compound 0.00316 µM, first compound 0.316 µM
[4] = second compound 0.00316 µM, first compound 1 µM
[5] = second compound 0.01 µM, first compound 0.0316 µM
[6] = second compound 0.01 µM, first compound 0.1 µM
[7] = second compound 0.01 µM, first compound 0.316 µM
[8] = second compound 0.01 µM, first compound 1 µM
[9] = second compound 0.0316 µM, first compound 0.0316 µM
[10] = second compound 0.0316 µM, first compound 0.1 µM
[11] = second compound 0.0316 µM, first compound 0.316 µM
[12] = second compound 0.0316 µM, first compound 1 µM
[13] = second compound 0.1 µM, first compound 0.0316 µM
[14] = second compound 0.1 µM, first compound 0.1 µM
[15] = second compound 0.1 µM, first compound 0.316 µM
[16] = second compound 0.1 µM, first compound 1 µM
[17] = second compound 0.316 µM, first compound 0.0316 µM
[18] = second compound 0.316 µM, first compound 0.1 µM
[19] = second compound 0.316 µM, first compound 0.316 µM
[20] = second compound 0.316 µM, first compound 1 µM
[21] = second compound 1 µM, first compound 0.0316 µM
[22] = second compound 1 µM, first compound 0.1 µM
[23] = second compound 1 µM, first compound 0.316 µM
[24] = second compound 1 µM, first compound 1 µM
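Further: spheroids exposed to compound for 7 days before readout.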
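Wherever viability, T/C is given: 100% = DMSO vehicle control wells.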

IC50 (second compound 0.000949 µM): 2280 nM | IC50 (second compound 0.003 µM): 2040 nM | IC50 (second compound 0.00949 µM): 3210 nM | IC50 (second compound 0.03 µM): 1850 nM | IC50 (second compound 0.0949 µM): 1120 nM | IC50 (second compound 0.3 µM): 329 nM
SMILES: NC1c2ccccc2OC12CCN(c1cnc3c(N4CCCc5ncccc54)n[nH]c3n1)CC2 (stereo unspecified) + CCn1c(-c2cccnc2C(C)OC)c2c3cc(ccc31)N1CCOC(CC(NC(=O)C(C(C)C)N(C)C(=O)C3(F)CCN(C(=O)C#CC(C)(C)N(C)C)CC3)C(=O)N3CCCC(N3)C(=O)OCC(C)(C)C2)C1
viability, T/C (second compound 0.000949 µM, first compound 0.0316 µM): 89.6% | viability, T/C (second compound 0.000949 µM, first compound 0.1 µM): 80.3% | viability, T/C (second compound 0.000949 µM, first compound 0.316 µM): 54.3% | viability, T/C (second compound 0.000949 µM, first compound 1 µM): 64.5% | viability, T/C (second compound 0.000949 µM, first compound 3.16 µM): 57.4% | viability, T/C (second compound 0.000949 µM, first compound 10 µM): 28.6% | viability, T/C (second compound 0.003 µM, first compound 0.0316 µM): 92.4% | viability, T/C (second compound 0.003 µM, first compound 0.1 µM): 76.2% | viability, T/C (second compound 0.003 µM, first compound 0.316 µM): 62.7% | viability, T/C (second compound 0.003 µM, first compound 1 µM): 62.4% | viability, T/C (second compound 0.003 µM, first compound 3.16 µM): 54.4% | viability, T/C (second compound 0.003 µM, first compound 10 µM): 25.5% | viability, T/C (second compound 0.00949 µM, first compound 0.0316 µM): 82.3% | viability, T/C (second compound 0.00949 µM, first compound 0.1 µM): 77.1% | viability, T/C (second compound 0.00949 µM, first compound 0.316 µM): 69.1% | viability, T/C (second compound 0.00949 µM, first compound 1 µM): 64.6% | viability, T/C (second compound 0.00949 µM, first compound 3.16 µM): 51.9% | viability, T/C (second compound 0.00949 µM, first compound 10 µM): 28.3% | viability, T/C (second compound 0.03 µM, first compound 0.0316 µM): 91% | viability, T/C (second compound 0.03 µM, first compound 0.1 µM): 81.3% | viability, T/C (second compound 0.03 µM, first compound 0.316 µM): 69.8% | viability, T/C (second compound 0.03 µM, first compound 1 µM): 59.6% | viability, T/C (second compound 0.03 µM, first compound 3.16 µM): 41.1% | viability, T/C (second compound 0.03 µM, first compound 10 µM): 36.8% | viability, T/C (second compound 0.0949 µM, first compound 0.0316 µM): 75.1% | viability, T/C (second compound 0.0949 µM, first compound 0.1 µM): 71.7% | viability, T/C (second compound 0.0949 µM, first compound 0.316 µM): 62% | viability, T/C (second compound 0.0949 µM, first compound 1 µM): 55% | viability, T/C (second compound 0.0949 µM, first compound 3.16 µM): 33.3% | viability, T/C (second compound 0.0949 µM, first compound 10 µM): 26.5% | viability, T/C (second compound 0.3 µM, first compound 0.0316 µM): 68.2% | viability, T/C (second compound 0.3 µM, first compound 0.1 µM): 56.4% | viability, T/C (second compound 0.3 µM, first compound 0.316 µM): 52.8% | viability, T/C (second compound 0.3 µM, first compound 1 µM): 38.9% | viability, T/C (second compound 0.3 µM, first compound 3.16 µM): 33.5% | viability, T/C (second compound 0.3 µM, first compound 10 µM): 21.1%

IC50 (second compound 0.00316 µM): > 10000 nM | IC50 (second compound 0.01 µM): > 10000 nM | IC50 (second compound 0.0316 µM): > 10000 nM | IC50 (second compound 0.1 µM): > 10000 nM | IC50 (second compound 0.316 µM): > 10000 nM | IC50 (second compound 1 µM): > 10000 nM
SMILES: CC(C)NCC(C(=O)N1CCN(c2ncnc3c2C(C)CC3O)CC1)c1ccc(Cl)cc1 (stereo unspecified) + C=CC(=O)N1CCN(c2nc(OCC3CCCN3C)nc3c(F)c(-c4nc(N)cc(C)c4C(F)(F)F)c(Cl)cc23)C(C)C1
viability, T/C [1]: 115% | viability, T/C [2]: 99.9% | viability, T/C [3]: 106% | viability, T/C [4]: 90.6% | viability, T/C (second compound 0.00316 µM, first compound 3.16 µM): 81.9% | viability, T/C (second compound 0.00316 µM, first compound 10 µM): 84.9% | viability, T/C [5]: 100% | viability, T/C [6]: 122% | viability, T/C [7]: 102% | viability, T/C [8]: 98.7% | viability, T/C (second compound 0.01 µM, first compound 3.16 µM): 91.2% | viability, T/C (second compound 0.01 µM, first compound 10 µM): 89.3% | viability, T/C [9]: 107% | viability, T/C [10]: 117% | viability, T/C [11]: 90.9% | viability, T/C [12]: 93.1% | viability, T/C (second compound 0.0316 µM, first compound 3.16 µM): 90.9% | viability, T/C (second compound 0.0316 µM, first compound 10 µM): 86.2% | viability, T/C [13]: 91.8% | viability, T/C [14]: 104% | viability, T/C [15]: 95.1% | viability, T/C [16]: 89.1% | viability, T/C (second compound 0.1 µM, first compound 3.16 µM): 87.5% | viability, T/C (second compound 0.1 µM, first compound 10 µM): 77.7% | viability, T/C [17]: 98.6% | viability, T/C [18]: 114% | viability, T/C [19]: 97.5% | viability, T/C [20]: 88% | viability, T/C (second compound 0.316 µM, first compound 3.16 µM): 88% | viability, T/C (second compound 0.316 µM, first compound 10 µM): 81.2% | viability, T/C [21]: 99.6% | viability, T/C [22]: 133% | viability, T/C [23]: 107% | viability, T/C [24]: 101% | viability, T/C (second compound 1 µM, first compound 3.16 µM): 77.6% | viability, T/C (second compound 1 µM, first compound 10 µM): 82.9%

IC50 (second compound 0.00316 µM): > 1000 nM | IC50 (second compound 0.01 µM): > 1000 nM | IC50 (second compound 0.0316 µM): > 1000 nM | IC50 (second compound 0.1 µM): > 1000 nM | IC50 (second compound 0.316 µM): > 1000 nM | IC50 (second compound 1 µM): > 1000 nM
SMILES: C=CC(=O)Nc1cc(Nc2nccc(-c3cn(C)c4ccccc34)n2)c(OC)cc1N(C)CCN(C)C + C=CC(=O)N1CCN(c2nc(OCC3CCCN3C)nc3c(F)c(-c4nc(N)cc(C)c4C(F)(F)F)c(Cl)cc23)C(C)C1
viability, T/C (second compound 0.00316 µM, first compound 0.00316 µM): 95.1% | viability, T/C (second compound 0.00316 µM, first compound 0.01 µM): 133% | viability, T/C [1]: 82.7% | viability, T/C [2]: 74.5% | viability, T/C [3]: 80.5% | viability, T/C [4]: 85.7% | viability, T/C (second compound 0.01 µM, first compound 0.00316 µM): 97.6% | viability, T/C (second compound 0.01 µM, first compound 0.01 µM): 138% | viability, T/C [5]: 86.7% | viability, T/C [6]: 93.4% | viability, T/C [7]: 86.1% | viability, T/C [8]: 84.8% | viability, T/C (second compound 0.0316 µM, first compound 0.00316 µM): 109% | viability, T/C (second compound 0.0316 µM, first compound 0.01 µM): 121% | viability, T/C [9]: 90.7% | viability, T/C [10]: 91% | viability, T/C [11]: 79.8% | viability, T/C [12]: 78.3% | viability, T/C (second compound 0.1 µM, first compound 0.00316 µM): 105% | viability, T/C (second compound 0.1 µM, first compound 0.01 µM): 136% | viability, T/C [13]: 103% | viability, T/C [14]: 95.4% | viability, T/C [15]: 78.9% | viability, T/C [16]: 76.8% | viability, T/C (second compound 0.316 µM, first compound 0.00316 µM): 104% | viability, T/C (second compound 0.316 µM, first compound 0.01 µM): 121% | viability, T/C [17]: 96.4% | viability, T/C [18]: 79.2% | viability, T/C [19]: 95.3% | viability, T/C [20]: 87.2% | viability, T/C (second compound 1 µM, first compound 0.00316 µM): 108% | viability, T/C (second compound 1 µM, first compound 0.01 µM): 129% | viability, T/C [21]: 81% | viability, T/C [22]: 112% | viability, T/C [23]: 83.7% | viability, T/C [24]: 89.8%
